Results: PMC10539361, “Allosteric modulation of the fish taste receptor type 1 (T1R) family by the extracellular chloride ion” (Scientific Reports, 2023)

Target: T1, hT1R2/hT1R3 (Homo sapiens, UniProt Q7RTX0+Q8TE23)
T1 construct: expressed in transfected cells
T1 sequence (Q8TE23 20-839): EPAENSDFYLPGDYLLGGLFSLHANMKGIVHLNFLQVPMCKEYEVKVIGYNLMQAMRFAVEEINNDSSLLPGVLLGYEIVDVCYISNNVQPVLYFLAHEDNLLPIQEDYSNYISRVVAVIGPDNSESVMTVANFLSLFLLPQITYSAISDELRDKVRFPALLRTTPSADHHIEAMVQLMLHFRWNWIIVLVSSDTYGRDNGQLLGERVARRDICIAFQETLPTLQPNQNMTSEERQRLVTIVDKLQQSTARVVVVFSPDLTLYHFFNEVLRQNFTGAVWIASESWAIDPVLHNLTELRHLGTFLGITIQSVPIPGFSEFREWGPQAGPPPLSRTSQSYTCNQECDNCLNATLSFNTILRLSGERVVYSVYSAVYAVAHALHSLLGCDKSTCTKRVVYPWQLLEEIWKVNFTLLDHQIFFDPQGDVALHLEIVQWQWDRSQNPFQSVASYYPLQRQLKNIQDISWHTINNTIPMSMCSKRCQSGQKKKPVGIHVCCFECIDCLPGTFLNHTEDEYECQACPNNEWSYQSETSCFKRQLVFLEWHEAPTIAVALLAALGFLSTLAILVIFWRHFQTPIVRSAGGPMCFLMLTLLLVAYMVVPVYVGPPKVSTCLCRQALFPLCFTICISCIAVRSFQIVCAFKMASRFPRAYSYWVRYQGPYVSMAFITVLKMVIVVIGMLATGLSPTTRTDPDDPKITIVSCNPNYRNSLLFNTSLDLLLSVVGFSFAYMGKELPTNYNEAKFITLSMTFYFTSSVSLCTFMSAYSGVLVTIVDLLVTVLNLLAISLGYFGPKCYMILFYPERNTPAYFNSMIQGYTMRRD
T1 sequence (Q7RTX0 21-852): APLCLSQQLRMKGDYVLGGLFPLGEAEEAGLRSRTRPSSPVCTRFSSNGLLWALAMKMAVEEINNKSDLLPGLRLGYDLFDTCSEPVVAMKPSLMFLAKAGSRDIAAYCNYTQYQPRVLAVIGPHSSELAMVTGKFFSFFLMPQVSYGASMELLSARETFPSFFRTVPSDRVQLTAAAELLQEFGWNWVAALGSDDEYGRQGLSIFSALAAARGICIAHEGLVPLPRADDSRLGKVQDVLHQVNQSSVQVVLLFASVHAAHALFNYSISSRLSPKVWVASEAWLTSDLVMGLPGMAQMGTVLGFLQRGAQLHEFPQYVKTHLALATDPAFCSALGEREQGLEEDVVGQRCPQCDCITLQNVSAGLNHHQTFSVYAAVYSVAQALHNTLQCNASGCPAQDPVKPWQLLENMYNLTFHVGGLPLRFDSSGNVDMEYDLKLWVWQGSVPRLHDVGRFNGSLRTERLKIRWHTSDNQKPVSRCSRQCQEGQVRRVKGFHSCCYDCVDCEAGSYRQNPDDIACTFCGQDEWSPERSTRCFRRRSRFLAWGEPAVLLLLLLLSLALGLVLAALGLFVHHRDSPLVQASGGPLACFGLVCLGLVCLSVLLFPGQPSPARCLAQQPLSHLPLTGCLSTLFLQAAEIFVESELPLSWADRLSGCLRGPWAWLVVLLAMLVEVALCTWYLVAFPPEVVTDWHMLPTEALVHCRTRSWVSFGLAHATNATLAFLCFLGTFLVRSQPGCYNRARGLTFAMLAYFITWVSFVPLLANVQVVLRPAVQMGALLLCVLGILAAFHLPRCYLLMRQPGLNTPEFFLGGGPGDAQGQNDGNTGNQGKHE
Experiment: Effect of anions, cations and osmotic pressure on cellular responses, cells in 10 mM Cl- buffer, hT1R2/hT1R3
Assay type: cell-based
Details: for cellular response to the salt alone: without agonist, cells in 10 mM Cl- buffer
Protocol: Cells were seeded in 96-well plates coated with ε-poly-L-lysine at approximately 70,000 cells per well. […] Fluorescence changes were monitored at 2 s intervals, as described above. […] Three independent experiments were conducted for each receptor, and representative results are shown as the mean ± SEM (n = 3 replicates). Statistical tests were conducted using KyPlot version 6.0 (KyensLab Inc., Tokyo, Japan). Statistical significance was set at p < 0.05.

O=C([O-])[C@H](O)[C@@H](O)[C@H](O)[C@H](O)CO.[Na+] [Na-gluconate, sodium gluconate]
cellular response to the salt alone: neither NaCl nor Na-gluconate alone elicited cellular responses

[Cl-].[Na+] [NaCl]
response intensity to sucralose on coapplication of the salt at higher concentrations (coapplied with 150 µM sucralose, above 60 mM final [Cl-]o or equivalent osmotic pressure): decreased
response intensity to sucralose on coapplication of the salt (coapplied with 150 µM sucralose, up to 60 mM [Cl-]o, compared to response at 10 mM [Cl-]o): no significant difference
cellular response to the salt alone: neither NaCl nor Na-gluconate alone elicited cellular responses
